Experimental data from patent EP2559435A1, “Rotigotine in the treatment of hemispatial neglect, stroke and deficits following stroke” (UCB Pharma GmbH, priority 2011, dated 2013).
Read-outs that look alike come from different tables or passages of the source.

Experiments:
[1] = system: neglect patients; settings: cited from earlier work
[2] = system: patients with hernispatial neglect and unilateral weakness following right hemisphere stroke; assay: Touchscreen cancellation task of hemispatial neglect, clinical trial; type: in vivo; settings: group of all 16 patients; on rotigotine vs before treatment onset
Protocol: (§1) A commercially available rotigotine TTS has been tested in a double-blind, randomised, placebo controlled trial of the dopamine agonist rotigotine in 16 patients aged over 18 years with hernispatial neglect and unilateral weakness following right hemisphere stroke.
(§2) Patients were assessed with a battery of standardised neglect tests, as well as with tests of working memory, selective and sustained attention and motor function. A replicated ABA double-blind, placebo-controlled N-of-1 randomised design (Edgington E, Onghena P. Randomization Tests (Statistics: a Series of Textbooks and Monographs). 4th ed. Chapman & Hall/CRC: 2007), which allows to evaluate the effectiveness of an intervention in small sample sizes. Each patient's performance was measured in three phases, each consisting of several assessment sessions: before treatment (phase A1), while receiving transdermal rotigotine (phase B) and after discontinuation of the drug - post treatment phase (phase A2). The exact duration of each phase was randomised across patients. […]
(§3) Phase A1 started on session 1 and its duration was randomised (across individuals) to between 5 and 9 days. […] Finally, phase A2, when patients were assessed after the discontinuation of rotigotine, was randomised to begin between sessions 13 and 17, and it lasted for the remaining 4 to 8 sessions. […]

[3] = system: patients with hernispatial neglect and unilateral weakness following right hemisphere stroke; assay: Vertical Corsi spatial working memory task, clinical trial; type: in vivo; settings: in some patients
Protocol: as §1, §2, §3

[4] = system: patients with hernispatial neglect and unilateral weakness following right hemisphere stroke; assay: Motricity Index (motor function on the affected side), clinical trial; type: in vivo; settings: in some patients
Protocol: as §1, §2, §3

[5] = system: patients with hernispatial neglect and unilateral weakness following right hemisphere stroke; assay: Mesulam cancellation (visual search) task of hemispatial neglect, clinical trial; type: in vivo
Protocol: as §1
(§4) Patients were assessed with a battery of standardised neglect tests, as well as with tests of working memory, selective and sustained attention and motor function. A replicated ABA double-blind, placebo-controlled N-of-1 randomised design (Edgington E, Onghena P. Randomization Tests (Statistics: a Series of Textbooks and Monographs). 4th ed. Chapman & Hall/CRC: 2007), which allows to evaluate the effectiveness of an intervention in small sample sizes. Each patient's performance was measured in three phases, each consisting of several assessment sessions: before treatment (phase A1), while receiving transdermal rotigotine (phase B) and after discontinuation of the drug - post treatment phase (phase A2). The exact duration of each phase was randomised across patients. Performance on rotigotine was compared with the pre-treatment baseline and post-treatment follow-up phases.
(§5) The effects of the drug were evaluated for the whole group of 16 patients, and, separately for two subgroups with different extent of involvement of the prefrontal cortex in the stroke lesion. The subgroups are defined according to the extent of involvement of the prefrontal cortex in the stroke lesion: a minimal prefrontal involvement subgroup (0%-15% of the prefrontal cortex affected) and an extensive prefrontal subgroup (33%-55% of the prefrontal cortex affected).
Phase A1 started on session 1 and its duration was randomised (across individuals) to between 5 and 9 days. Observations during this phase established the baseline performance. Phase B, when rotigotine was administered, could commence on day 6 to day 10, and its duration was a minimum of 7 and a maximum of 11 sessions. During treatment phase, a rotigotine 9 mg patch (4mg/24hr transdermal absorption) was applied daily and worn for 24 hours a day. Finally, phase A2, when patients were assessed after the discontinuation of rotigotine, was randomised to begin between sessions 13 and 17, and it lasted for the remaining 4 to 8 sessions.
Each patient was randomly assigned a pattern of onset and duration of the treatment and baseline phases, within the duration limits described above. In this example, the patient had 6 baseline assessments (phase A1, sessions 1-6), followed by 8 days on rotigotine (sessions 7-14) and 6 follow-up assessments (phase A2, sessions 15-20) after discontinuation of the drug. […] Mid-grey depicts any additional sessions in phases A1 and A2 when the patient received placebo patches. Some other possible permutations of pre-treatment, treatment and post-treatment phases within the constraints of the design are shown in figure 1b. The actual difference in performance between treatment (B) and the off-treatment phases (A1 and A2) was ranked against the differences between phases produced by all other possible combinations of treatment allocation, given the limits in phase onset and duration. In total, there were 15 possible permutations.
This visuospatial scanning test-further described in Mesulam, M.-M. Principles of Behavioural Neurology; tests of directed attention and memory (Davis, Philadelphia, 1985) - with a cluttered array of symbols is performed on A3 sheets. In this test visual target objects are identified among distracters; targets identified are marked by the participant (black circles in fig. 2). There was a 2 minutes time limit for this task. […] Furthermore, on rotigotine, there was an improvement in the spatial bias of the responses, measured as the proportion of the targets identified on the left when compared to those identified on the right. In the minimal prefrontal involvement subgroup, rotigotine had again a significant positive effect in the number of targets identified on the left. […]

[6] = system: patients with hernispatial neglect and unilateral weakness following right hemisphere stroke; assay: Selective and sustained attention (vigilance) task, clinical trial; type: in vivo
Protocol: as §1, §4, §5
Phase A1 started on session 1 and its duration was randomised (across individuals) to between 5 and 9 days. Observations during this phase established the baseline performance. […] Finally, phase A2, when patients were assessed after the discontinuation of rotigotine, was randomised to begin between sessions 13 and 17, and it lasted for the remaining 4 to 8 sessions.
The subject had to identify high- or low- sallence targets among non targets on either side. % correct and reaction times are measured, further described in Barcelo et al. Nature Neuroscience 2000 3:399-403.
Participants detected targets (inverted triangles) among sequences of distractors (upright triangles) randomly presented to the ipsilesional and contralesional visual fields. […]
As a measure of selective attention, the ratio of the reaction time (RT) to high visual salience targets over the RT to low visual salience targets was used. Furthermore, using this task, sustained attention was quantified over time, by measuring the difference in RT and % correct responses between the first and the second half of each experimental session. […]

CN1CCc2cccc3c2[C@H]1Cc1ccc(O)c(O)c1-3 [Apomorphine]
effect on hemispatial neglect ([1]; four neglect patients tested (Geminiani et al. 1998)): transient improvement in three out of four neglect patients

CCCN(CCc1cccs1)C1CCc2c(O)cccc2C1 (single isomer, unassigned; (-)) [rotigotine, (-)-5,6,7,8-tetrahydro-6-[propyl-[2-(2thienyl)ethyl]-amino]-1-naphthalenol]
targets identified [2]: more targets were identified
spatial working memory (spatial span) [3]: improved spatial working memory
motor function on the affected side (Motricity Index of the affected arm, leg and side) [4]: improved motor function on the affected side
number of targets found on the left side ([5]; entire group of 16 patients, on rotigotine vs pre- and post-treatment phases averaged or post-treatment phase alone): significantly higher
difference on- and off-treatment in the number of targets found on the left side relative to baseline ([5]; entire group of 16 patients, rotigotine 9 mg patch (4mg/24hr) daily, actual treatment allocation higher than mean difference of all possible permutations): 12.8%
effect size: less rightward bias relative to baseline (spatial bias in visual search) ([5]; entire group of 16 patients, rotigotine 9 mg patch (4mg/24hr) daily, actual treatment allocation in comparison to all possible permutations): 8.1%
spatial bias in visual search ([5]; entire group, on rotigotine vs post-treatment phase or both off-treatment phases): improved significantly
decrease in the number of targets found in a smaller area on the right hand side ([5]; entire patient group, during treatment): not statistically significant
spatial bias ([5]; extensive prefrontal group, on rotigotine): improved significantly
number of left targets found ([5]; extensive prefrontal subgroup (33%-55% of prefrontal cortex affected), on rotigotine): did not reach significance
number of targets identified in total ([5]; group of all 16 patients, on rotigotine): significantly larger number of targets
number of left targets found ([5]; minimal prefrontal subgroup (0%-15% of prefrontal cortex affected), on rotigotine): significantly higher
ratio of RT to high salience vs low salience targets ([6]; entire group, left sided targets, during treatment vs pre-treatment baseline): significant increase
ratio of RT to high salience vs low salience targets ([6]; entire group, left sided targets, treatment vs post-treatment baseline or average of both off-treatment phases): only marginal
ratio of RT to high salience vs low salience targets ([6]; extensive prefrontal subgroup, overall for both left and right-sided targets): significant beneficial effect
ratio of RT to high salience vs low salience targets ([6]; minimal prefrontal subgroup (e.g. left sided targets, comparison with off-treatment average)): no significant effect

NC12CC3CC(CC(C3)C1)C2 [amantadine]
effect on hemispatial neglect ([1]; small-scale trial in four neglect patients (Buxbaum et al. 2007)): did not demonstrate any beneficial effect
